No end group written: not given here.
Legend:
[1] = test system: hepatitis B virus (HBV) ayw strain; assay: HBV experimental assay system (HepG2-2.2.15, TaqMan PCR of HBV DNA); format: cell-based; settings: 10 micrograms per ml; six days; as compared to the virus control infection
[2] = test system: IL-5 spleen cells; assay: Th1/Th2 cytokine profiling assay: IL-5; format: cell-based, Balb/c mice; settings: 10 micrograms per ml; Ovalbumin restimulation; 72 hours
From the text: The Balb/c mice (originated in 1923, it is a popular strain and is used in many different research disciplines. Also classified as an inbred from the production of 20 or more successive brother-sister matings, the Balb/c mouse is albino and small in size) were immunized on Days 1, 15, and 29 with Ovalbumin (Ovalbumin is the main protein found in egg white, commonly used to stimulate an immunological reaction in test animals) in PBS (5 micrograms/injection). On day 50, spleens of the mice were harvested (3 weeks after last boost with Ovalbumin). […] Thereafter, additional Ovalbumin was added to the cells at 10 micrograms/ml for in vitro restimulation of the cells. 72 hours later, cell supernatants were harvested and assayed using the Becton Dickinson Mouse Th1/Th2 Cytokine CBA Kit.

[3] = test system: IL-2 spleen cells; assay: Th1/Th2 cytokine profiling assay: IL-2; format: cell-based, Balb/c mice; settings: 10 micrograms per ml; Ovalbumin restimulation; 72 hours
From the text: (§1) The Balb/c mice (originated in 1923, it is a popular strain and is used in many different research disciplines. Also classified as an inbred from the production of 20 or more successive brother-sister matings, the Balb/c mouse is albino and small in size) were immunized on Days 1, 15, and 29 with Ovalbumin (Ovalbumin is the main protein found in egg white, commonly used to stimulate an immunological reaction in test animals) in PBS (5 micrograms/injection). On day 50, spleens of the mice were harvested (3 weeks after last boost with Ovalbumin). […] Thereafter, additional Ovalbumin was added to the cells at 10 micrograms/ml for in vitro restimulation of the cells. 72 hours later, cell supernatants were harvested and assayed using the Becton Dickinson Mouse Th1/Th2 Cytokine CBA Kit. This kit can be used to measure Interleukin-2 (IL-2), Interleukin-4 (IL-4), Interleukin-5 (IL-5), Interferon-γ (IFN-γ), and Tumor Necrosis Factor-α (TNF-α) protein levels in a single sample.

[4] = test system: IL-4 spleen cells; assay: Th1/Th2 cytokine profiling assay: IL-4; format: cell-based, Balb/c mice; settings: 10 micrograms per ml; Ovalbumin restimulation; 72 hours
From the text: as §1

[5] = test system: IFNγ spleen cells; assay: Th1/Th2 cytokine profiling assay: IFNγ; format: cell-based, Balb/c mice; settings: 10 micrograms per ml; Ovalbumin restimulation; 72 hours
From the text: as §1

[6] = test system: TNF-a spleen cells; assay: Th1/Th2 cytokine profiling assay: TNF-a; format: cell-based, Balb/c mice; settings: 10 micrograms per ml; Ovalbumin restimulation; 72 hours
From the text: as §1

[7] = test system: Primary Human endothelial cells (HUVEC); assay: Endothelial cell migration assay; format: cell-based; settings: 10 micrograms per ml, 22 hours
[8] = test system: cyclic AMP generation in human peripheral blood mononuclear cells (PBMC); assay: cAMP induction assay; format: cell-based; settings: single peptides, 10 min at 37° C.
Experimental: The cAMP kit was used as an immunoassay for the quantitative determination of cyclic AMP generation in human peripheral blood mononuclear cells (PBMC). PBMC were placed in 96-well microtitier plates (50 microliters of cells at 4×10^6/ml) and 50 microliters of medium alone (background control), forskolin (cAMP positive control; 50 micrograms per ml), or test peptides were added. Plates were mixed and incubated for 10 min at 37° C. and the cells were lysed by the addition of 50 microliters of 3% perchloric acid. NaOH was added to neutralize the samples. Plates were centrifuged for 15 min at 2500 rpm and the supernatants removed. The supernatants (diluted 2-fold in assay buffer) were then assayed for the levels of cAMP by ELISA.

With “Tyr-Val-Met-Gly-His-Phe-Arg-Trp-Asp-Arg-Phe-NH2 (YVMGHFRWDRF-NH2) [peptide 1]” the “inhibition of HBV replication” value [1] was 17.4%, the “IL-5 spleen cells; TH2 response (% of control)” value [2] was 67.0 % of control and the “IL-2 spleen cells (% of control)” value [3] was 101.6 % of control. For the same substance, the “IL-4 spleen cells; TH2 response (% of control)” value [4] was 0.0 % of control, the “IFNγ spleen cells; TH1 response (% of control)” value [5] was 97.3 % of control and the “TNF-a spleen cells; TH1 response (% of control)” value [6] was 85.7 % of control. For the same substance, the “induction of the migration of human endothelial cells” value [7] was 12% and the “induction of cAMP formation in human peripheral blood cells” value [8] was 45.4%.
